Measurements: publication PMC4738305, “Metabolism and Disposition of Aditoprim in Swine, Broilers, Carp and Rats” (Scientific Reports, 2016)

Tests used:
[1] = Radioactivity excretion (mass balance) after a single oral dose of ^3H-ADP; assay type: in vivo; conditions: single oral 5 mg/kg b. w., within 14 d
Protocol: Animals (4 swine, 6 broilers, 6 carp, and 3 male and 3 female rats) were housed individually in clean, suspended wire-mesh metabolism cages, designed to separate the urine from the feces (carp were raised in individual aquaria). Each animal was weighed and assigned with a permanent identification number. A single dose of ^3 H-ADP (5 mg/kg b. w., 0.1 Ci/g) was administered via the oral gavage. Excreta were collected on ice at the pre-administration, in the period of 6, 12, and 24 h on day 1 d, and afterwards, intermittently in the period of 24 h up to 14 d. The piscine excreta were collected by changing and collecting raised water. The total volume or weight of each sample was measured and homogenized. The total radioactivity levels were determined through LSC for the recovery calculations. After the preparation, the samples were analyzed through LC/MS-IT-TOF with v. […] The pretreatment samples were used as controls to determine the background radioactivity or the endogenous nondrug-related ions observed within respective matrices or their extracts.
Measurements of the total radioactivity in each sample were conducted by Packard Tri-Carb 2900 TR liquid scintillation counter (PerkinElmer Life and Analytical Sciences). […] The actual radioactivity of each sample was calculated by subtracting the background value form the mean radioactivity in two blank samples. […]

[2] = Metabolite profiling of ADP in excreta, plasma and bile (LC-v.ARC/MS-IT-TOF); assay type: in vivo, swine; conditions: for percentage of the individual metabolite compared with the total concentration of ADP-related: within 6 h after dosing; for Average percentage of ADP and its metabolites in total dose: Swine, single oral 5 mg/kg b.w. ^3H-ADP
Protocol: (§1) Animals (4 swine, 6 broilers, 6 carp, and 3 male and 3 female rats) were housed individually in clean, suspended wire-mesh metabolism cages, designed to separate the urine from the feces (carp were raised in individual aquaria). Each animal was weighed and assigned with a permanent identification number. A single dose of ^3 H-ADP (5 mg/kg b. w., 0.1 Ci/g) was administered via the oral gavage. Excreta were collected on ice at the pre-administration, in the period of 6, 12, and 24 h on day 1 d, and afterwards, intermittently in the period of 24 h up to 14 d. The piscine excreta were collected by changing and collecting raised water. The total volume or weight of each sample was measured and homogenized. The total radioactivity levels were determined through LSC for the recovery calculations. After the preparation, the samples were analyzed through LC/MS-IT-TOF with v. ARC radiometric detection (XenoBioticLaboratories, Inc.) for metabolite profiling. The pretreatment samples were used as controls to determine the background radioactivity or the endogenous nondrug-related ions observed within respective matrices or their extracts.
(§2) A total of 36 animals from each species (swine n = 24) were randomly assigned to six equal treatment groups and administered a single daily dose of ^3 H-ADP at 5 mg/kg b. w. (0.1 Ci/g) through oral gavage for 7 consecutive days. All the animals were housed on the basis of their group in the cages or aquaria throughout the whole study period. A group of animals was slaughtered through exsanguination under diethyl ether inhalation of anesthesia in the period of 6 h, 1, 3, 7, 14, and 21 d after the administration. The blood samples were immediately collected into the heparinized tubes and was centrifuged at 1920 × g at 4 °C for 10 min to obtain the plasma. The tissues from the heart, liver, spleen, lung, kidney, craw (broilers), stomach, intestine, fat, skin, muscle, thymus, pancreas, bile, bladder, hair (scale for carp), genital gland, adrenal glands, swim bladder (carp), brain, lymph, and bursa (broilers) were carefully excised and collected. The tissues were thoroughly rinsed with the deionized water to remove the residuary blood, blotted to dryness, and finally to perform the homogenization. In order to avoid cross-contamination the dissecting instruments were washed during the tissue procurements. The blank tissues were collected in order to provide control matrices. The total radioactivity levels in each sample were determined through LSC. The samples extracted from the plasma, bile, and tissues of the liver, kidney, muscle, and fat/skin were analyzed through LC/MS-IT-TOF and v. ARC radiometric detection for metabolite profiling. The blank samples were used as control to determine the background radioactivity or the endogenous nondrug-related ions observed within respective matrices or their extracts.
(§3) For metabolite profiling, the urine and feces samples from each animals were pooled proportionally to the excreted amount in each sampling period from 0 to 6 h, 6 h to 1 d, 1 to 3 d, 3 to 7 d, and 7 to 14 d post-dose, respectively. All samples were fully homogenized before the process. The pre-dose and blank samples served as the controls for determining the background radioactivity or the endogenous, nondrug-related ions observed within respective matrices or their extracts.
(§4) The urine samples (plasma, bile and raised water for carp) was subjected to solid-phase extraction with an Oasis MCX cartridge (3 mL, […]; Waters, Milford, MA, USA) for metabolite purification and enrichment. The pH value was adjusted to 2.8–3.2 by adding 1 M hydrochloric acid (HCl), and 2 mL of the sample was transferred into MCX cartridge, which was preconditioned with 3 mL of methanol and 3 mL of 0.1 mol/L HCl solution. The cartridge was washed with 3 mL of 0.1 mol/L HCl solution and was eluted with 5 mL of NH4OH/methanol (4:96, v:v). The effluent was concentrated to dryness under a stream of nitrogen at 40 °C. […]

[3] = as above; assay type: in vivo, broilers; conditions: for percentage of the individual metabolite compared with the total concentration of ADP-related: within 6 h after dosing; for Average percentage of ADP and its metabolites in total dose: Broilers, Excreta, single oral 5 mg/kg b.w. ^3H-ADP
Protocol: as §1, §2, §3, §4

[4] = as above; assay type: in vivo, rats; conditions: for Average percentage of ADP and its metabolites in total dose: Rat, single oral 5 mg/kg b.w. ^3H-ADP; for percentage of the individual metabolite compared with the total concentration of ADP-related: within 6 h after dosing
Protocol: as §1, §2, §3, §4

urine excretion of radioactivity ([1]; rats)	urine excretion of radioactivity ([1]; swine)	percentage of the individual metabolite compared with the total concentration of ADP-related ([2]; Swine Feces) [%]	percentage of the individual metabolite compared with the total concentration of ADP-related ([2]; Swine Plasma) [%]	percentage of the individual metabolite compared with the total concentration of ADP-related ([2]; Swine Urine) [%]	Average percentage of ADP and its metabolites in total dose ([2]; Feces) [%]	Average percentage of ADP and its metabolites in total dose ([2]; Urine) [%]	share of sample radioactivity ([2]; swine urine, period of 7–14 d (as the text reads), single oral dose)	percentage of the individual metabolite compared with the total concentration of ADP-related ([3]; Broilers Extra (excreta)) [%]	percentage of the individual metabolite compared with the total concentration of ADP-related ([3]; Broilers Plasma) [%]	Average percentage of ADP and its metabolites in total dose [3] [%]	Average percentage of ADP and its metabolites in total dose ([4]; Feces) [%]	Average percentage of ADP and its metabolites in total dose ([4]; Urine) [%]	percentage of the individual metabolite compared with the total concentration of ADP-related ([4]; Rats Feces) [%]	percentage of the individual metabolite compared with the total concentration of ADP-related ([4]; Rats Plasma) [%]	percentage of the individual metabolite compared with the total concentration of ADP-related ([4]; Rats Urine) [%]	SMILES
78 % of the administered dose	78 % of the administered dose	89.1	53.0	42.3	16.0	33.4	approximately 90%	63.2	51.6	64.3	14.0	61.3	79.4	75.0	71.2	COc1cc(Cc2cnc(N)nc2N)cc(OC)c1N(C)C [A0, 2,4-Diamino-5-[4-(dimethylamino)-3,5-dimethoxybenzyl] pyrimidine]
		9.7	23.7	11.4	2.9	13.3		12.8	23.4	13.7	2.7	13.8	20.4	19.0	14.7	CNc1c(OC)cc(Cc2cnc(N)nc2N)cc1OC [A1, N-monodesmethyl-ADP]
		1.1	15.0	11.8	0.5	11.3		6.5	12.6	4.8	0.7	1.1	0.3	6.0	2.6	COc1cc(Cc2cnc(N)nc2N)cc(OC)c1N [A2, N-didesmethyl-ADP]
